Source: patent US20230090742A1, “AMINOPYRIMIDINYLAMINOBENZONITRILE DERIVATIVES AS NEK2 INHIBITORS” (Sumitomo Pharma Oncology, Inc., priority 2020, published 2023)
Read-outs that look alike come from different tables or passages of the source.

Key:
SW480 cells = assay: Cell cycle analysis in SW480 cells by flow cytometry; type: cell-based; details: 24-hour treatment
Procedure: (§1) Reagents. MDA-MB-231 (Breast adenocarcinoma, triple negative breast cancer) and SW480 (colorectal adenocarcinoma, stem-like subtype) cells were purchased from ATCC and cultured as per manufacturer's instruction. Thymidine (Sigma, T9250) stock solution (100 mM) was prepared in PBS. 2′-Deoxycytidine (Sigma, D897) stock solution (240 mM) was prepared in distilled H2O. Nocodazole (Selleck Chemicals, S2775) stock solution (5 mg/mL) was made in dimethyl sulfoxide (DMSO). FxCycle Far Red stain (F10348) for cell cycle analysis was purchased from Thermo Fisher Scientific.
Flow Cytometry Analysis. The SW480 cells were treated with NEK2 inhibitors at a concentration ranging from 0-1000 nM for 24 hours. After 24 hours of treatment, cells were detached and dissociated using 0.25% trypsin. After trypsinization, cells were washed with ice-cold PBS and fixed in 4% paraformaldehyde (PFA) at room temperature for 20 minutes. After fixation, cells were permeabilized by incubating in 90% methanol for 30 minutes on ice. Subsequently, cells were stained with FITC conjugated anti-EZH2 antibody (1:50, Cell Signaling technology) for 2 hours at room temperature and FxCycle Far Red stain (Thermo Fisher Scientific) for visualization of EZH2 expression and cell cycle, respectively. […] A minimum of 100,000 events were analyzed in each sample, and the results were evaluated using FlowJo software. […]

[1] = target: T1, NEK2 kinase (Accession No. NP-002488) (Homo sapiens, UniProt P51955); assay: HotSpot Kinase Assay, NEK2; type: biochemical
T1 construct: purchased ThermoFisher Scientific (Invitrogen)
T1 sequence (P51955 1-445): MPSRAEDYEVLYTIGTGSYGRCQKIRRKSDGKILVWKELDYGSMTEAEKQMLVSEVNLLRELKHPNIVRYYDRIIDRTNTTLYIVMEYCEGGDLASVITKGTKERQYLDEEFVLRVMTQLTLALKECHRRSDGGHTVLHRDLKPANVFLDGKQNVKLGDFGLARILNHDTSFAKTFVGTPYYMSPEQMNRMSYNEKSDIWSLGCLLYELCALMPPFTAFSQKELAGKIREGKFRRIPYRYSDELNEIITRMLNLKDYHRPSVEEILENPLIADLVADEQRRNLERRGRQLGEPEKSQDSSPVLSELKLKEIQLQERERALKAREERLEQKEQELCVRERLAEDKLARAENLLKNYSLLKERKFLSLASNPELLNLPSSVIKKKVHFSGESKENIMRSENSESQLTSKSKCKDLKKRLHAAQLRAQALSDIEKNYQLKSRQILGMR
Procedure: (§2) In this example, the compounds described herein were tested for their inhibitory activity against NEK2 and/or Aurora A using the HotSpot™ Kinase Assay (Reaction Biology Corp.). The assay was performed according to the manufacturer's protocol, as detailed below. The NEK2 kinase (Accession No. NP-002488) and Aurora A kinase (Accession No. NP-940839) for use in these assays was sourced from ThermoFisher Scientific (Invitrogen).
(§3) The base Reaction Buffer used in this experiment contained the following: 20 mM Hepes (pH 7.5), 10 mM MgCl2, 1 mM EGTA, 0.02% Brij™-35, 0.02 mg/ml BSA, 0.1 mM Na3VO4, 2 mM DTT, and 1% DMSO. The required cofactors were added individually to each kinase reaction.
(§4) Testing compounds were dissolved in 100% DMSO to a specific concentration. The serial dilution was conducted by Integra Viaflo Assist in DMSO.
(§5) The substrate was prepared in freshly prepared Reaction Buffer. The required cofactors were delivered to the substrate solution described above. NEK2 kinase or Aurora A kinase was delivered to the substrate solution and gently mixed. Next, the compounds in 100% DMSO were transferred to the kinase reaction mixture by Acoustic technology (Echo550; nanoliter range) and incubated for 20 min at room temperature. ^33P-ATP (Specific activity 10 μCi/μl) was delivered into the reaction mixture to initiate the reaction. The reaction was incubated for 2 hours at room temperature. Radioactivity was then detected by the filter-binding method. Kinase activity data were expressed as the percent remaining kinase activity in test samples compared to vehicle (dimethyl sulfoxide) reactions. IC50 values and curve fits were obtained using Prism (GraphPad Software).

[2] = target: T2, Aurora A kinase (Accession No. NP-940839) (Homo sapiens, UniProt O14965); assay: HotSpot Kinase Assay, Aurora A; type: biochemical
T2 construct: purchased ThermoFisher Scientific (Invitrogen)
T2 sequence (O14965 1-403): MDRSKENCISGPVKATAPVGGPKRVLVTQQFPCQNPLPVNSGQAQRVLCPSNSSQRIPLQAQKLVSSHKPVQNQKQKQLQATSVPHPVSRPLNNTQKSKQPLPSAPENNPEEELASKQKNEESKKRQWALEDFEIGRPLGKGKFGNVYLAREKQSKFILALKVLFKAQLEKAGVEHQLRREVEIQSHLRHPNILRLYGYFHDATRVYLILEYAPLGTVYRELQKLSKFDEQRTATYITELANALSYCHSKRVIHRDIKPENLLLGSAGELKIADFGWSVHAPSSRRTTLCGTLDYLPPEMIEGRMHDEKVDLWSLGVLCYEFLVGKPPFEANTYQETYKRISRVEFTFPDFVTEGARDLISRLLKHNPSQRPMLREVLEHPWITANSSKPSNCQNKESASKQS
Procedure: as §2, §3, §4, §5

NEK2 = target: T3, NEK2 (Homo sapiens, UniProt P51955); assay: NanoBRET Target Engagement Intracellular Kinase Assay for NEK2 in transfected HEK293 cells; type: cell-based
T3 construct: expressed in transfected cells; host or cells: HEK293
T3 sequence (P51955 1-445): T1 sequence (P51955 1-445)
Procedure: In this example, the compounds described herein were tested for their inhibitory activity against NEK2 using a model of in vivo activity by the NanoBRET™ Target Engagement Intracellular Kinase Assay (Reaction Biology Corp.). The assay was performed according to the manufacturer's protocol, as detailed below.
HEK293 cells were cultivated (70-80% confluence) prior to the assay. The sample was trypsinized and HEK293 cells were collected.
To prepare lipid: DNA complexes, a 10 μg/ml solution of DNA in Opti-MEM without serum was prepared that consisted of the following ratios of carrier DNA and DNA encoding NanoLuc® fusion: 9.0 μg/ml of Transfection Carrier DNA, 1.0 μg/ml of NanoLuc fusion vector DNA and 1 ml of Opti-MEM without phenol red. The solution was mixed thoroughly. 30 μl of FuGENE HD Transfection Reagent was added into each milliliter of DNA mixture to form lipid: DNA complex. The sample was mixed by inversion 10 times and then incubated at ambient temperature for 20 minutes to allow complexes to form. In a sterile, conical tube, 1 part of lipid:DNA complex was mixed with 20 parts of HEK293 cells in suspension. The resulting sample was mixed gently by inversion 5 times. The cell and lipid: DNA complex was dispensed into a sterile tissue culture dish and incubated for 22-24 hours.
Each test compound is delivered from the compound source plate to the wells of 384-well white NBS plate by Echo 550.
Step 3. Preparation of Cells with NanoBRET™ Tracer K5 Reagent:
The medium was removed from the dish with the transfected HEK293 cells via aspiration, trypsinized and cells were allowed to dissociate from the dish. Trypsin was neutralized using medium containing serum and centrifuged at 200×g for 5 minutes to pellet the cells. The cell density was adjusted to 2×10^5 cells/ml in Opti-MEM without phenol red.
The Complete 20× NanoBRET™ Tracer K5 Reagent with Tracer Dilution Buffer was prepared according to the manufacturer's instructions. One part of Complete 20× NanoBRET™ Tracer Reagent was added to 20 parts of cells in the tube. The sample was mixed gently by inversion 10 times. Next, the cell suspension was dispensed into white, 384-well NBS plates with a final tracer K5 concentration of 2 μM. The plate was incubated at 37° C., 5% CO2 for 1 hour. A separate set of samples without tracer were prepared for background correction steps.
The plate was removed from the incubator and equilibrated to room temperature for 15 minutes. The 3× Complete Substrate plus Inhibitor Solution in Assay Medium (Opti-MEMR I Reduced Serum Medium, no phenol red) was prepared just before measuring BRET. The 3× Complete Substrate plus Inhibitor Solution was added to each well of the 384-well plate and incubated for 2-3 minutes at room temperature. The donor emission wavelength (460 nm) and acceptor emission wavelength (600 nm) were measured using the Envision 2104 plate reader.
To generate raw BRET ratio values, the acceptor emission value (600 nm) was divided by the donor emission value (460 nm) for each sample. To correct for background, the BRET ratio in the absence of tracer (average of no-tracer control samples) was subtracted from the BRET ratio of each sample.
BRET Ratio=[(Acceptor sample÷Donor sample)−(Acceptor no-tracer control÷Donor no-tracer control)]

EZH2 expression = assay: Flow cytometry analysis for EZH2 expression in SW480 cells; type: cell-based; details: Homo sapiens, 24 hours treatment, 0-1000 nM, haploid and diploid cells, read-out: dose dependent decrease in EZH2 expression, IC50
Procedure: as §1
Antibodies. Polyclonal antibodies to phosphorylated-Ser55 Hec1 (PA5-85846; 1:1000) were purchased from ThermoFisher Scientific, and Phospho-Thr320 PP1α (2581S; 1:1000) and Total PP1α (2582S; 1:1000) were purchased from Cell Signaling Technologies. Monoclonal antibodies to Phospho-Ser10 Histone H3 (53348S; 1:1000), Total Histone H3 (14269; 1:5000), and EZH2-FITC (30233, 1:50) antibodies were purchased from Cell Signaling Technologies; Total Hec1 (ab109496; 1:10000) was purchased from Abcam; and Total NEK2 (sc-55601; 1:200) and GAPDH (sc-365062; 1:1000-2000) antibodies were purchased from Santa Cruz Technologies.
Flow Cytometry Analysis. […] A minimum of 100,000 events were analyzed in each sample, and the results were evaluated using FlowJo software. […]

[3] = HotSpot Kinase Assay, read-out: NEK2 IC50
[4] = HotSpot Kinase Assay, read-out: Aurora A IC50
[5] = comparator compounds, read-out: Aurora A Activity
[6] = NEK2 target engagement, read-out: NanoBRET IC50
[7] = comparator compounds, read-out: NEK2 Activity HotSpot Assay

Row | SMILES | IC50 [1, 3] [µM] | IC50 [2, 4] [µM] | IC50 [2, 5] [µM] | IC50 (NEK2; [6]) [µM] | other results
1 | O=C(O)[C@]1(Cc2cccc(Nc3nccs3)n2)CC[C@@H](Oc2cccc(Cl)c2F)CC1 [MK-5108] | – | – | – | – | cell cycle distribution (SW480 cells): significantly arrested cells in G2-M phase
2 | CN(C)CCn1cc(Nc2ncc(Cl)c(Nc3cccc(OCc4ccccc4F)c3C#N)n2)cn1 [Compound 32, 2-((5-chloro-2-((1-(2-(dimethylamino)ethyl)-1H-pyrazol-4-yl)amino)pyrimidin-4-yl)amino)-6-((2-fluorobenzyl)oxy)benzonitrile] | > 0.015 | > 1 | – | – | –
3 | COc1cnc(Nc2ccc(N3CCNCC3)cc2)nc1Nc1cccc(OCc2ccccc2F)c1C#N [Compound 10, 2-((2-fluorobenzyl)oxy)-6-((5-methoxy-2-((4-(piperazin-1-yl)phenyl)amino)pyrimidin-4-yl)amino)benzonitrile] | ≤ 0.005 | > 1 | – | 0.05 to 0.15 | –
4 | Cc1cnc(Nc2ccc(N3CCNCC3)cc2)nc1Nc1cccc(OCc2ccccc2F)c1C#N [Compound 12, 2-((2-fluorobenzyl)oxy)-6-((5-methyl-2-((4-(piperazin-1-yl)phenyl)amino)pyrimidin-4-yl)amino)benzonitrile] | ≤ 0.005 | – | – | ≤ 0.05 | IC50 (EZH2 expression): 0.213 µM
5 | CCN(CCCOc1ccc2c(Nc3cc(CC(=O)Nc4cccc(F)c4)n[nH]3)ncnc2c1)CCOP(=O)(O)O [AZD-1152] | – | – | – | – | cell cycle distribution (SW480 cells): significantly arrested cells in G2-M phase
6 | N#Cc1c(Nc2nc(Nc3ccc(N4CCOCC4)cc3)ncc2Cl)cccc1OCc1ccccc1F [Compound 2, 2-((5-chloro-2-((4-morpholinophenyl)amino)pyrimidin-4-yl)amino)-6-((2-fluorobenzyl)oxy)benzonitrile] | ≤ 0.005 | > 1 | – | > 0.15 | –

Now from value to compound, other results behind:

Row | IC50 [1, 3] [µM] | IC50 [2, 4] [µM] | IC50 [2, 5] [µM] | IC50 (NEK2; [6]) [µM] | SMILES | other results
7 | – | – | 0.0001 | – | CN1CCN(c2ccc(Nc3ncc(Cl)c(Nc4ccc(C(N)=O)c(OCc5ccccc5F)c4)n3)cc2)CC1 [CF-03, 4-((5-chloro-2-((4-(4-methylpiperazin-1-yl)phenyl)amino)-pyrimidin-4-yl)-amino)-2-((2-fluorobenzyl)oxy)benzamide, reference compound] | –
8 | – | – | 0.796 | – | CN1CCN(Cc2ccc(Nc3ncc(Cl)c(Nc4ccc(C#N)c(OCc5ccccc5F)c4)n3)cc2)CC1 [CF-01, 4-((5-chloro-2-((4-((4-methylpiperazin-1-yl)methyl)phenyl)-amino)-pyrimidin-4-yl)amino)-2-((2-fluorobenzyl)-oxy)benzonitrile, reference compound] | IC50 (NEK2; comparator compounds, read-out: NEK2 Activity NanoBRET assay): 0.264 µM; IC50 [1, 7]: > 1 µM
9 | – | – | 0.313 | – | CN1CCN(c2ccc(Nc3ncc(Cl)c(Nc4ccc(C#N)c(OCc5ccccc5F)c4)n3)cc2)CC1 [CF-02, 4-((5-chloro-2-((4-(4-methylpiperazin-1-yl)phenyl)-amino)-pyrimidin-4-yl)amino)-2-((2-fluorobenzyl)-oxy)benzonitrile, reference compound] | IC50 [1, 7]: 0.264 µM
